Patent publication US20080021067A1, “Methods For The Treatment Of Substance Abuse And Addiction” (priority 2004, published 2008)
“Also recorded” adds a separate entry of the source.

Key:
hMC3R [1] = molecular target: T1, hMC3R (Homo sapiens, UniProt P41968); experiment: Membrane binding assay, 125I-NDP-alpha-MSH competition; details: ratio IC50 MC-3R / IC50 MC-4R
T1 construct: expressed in transfected cells; host or cells: CHO- or L-cells or other eukaryotic cells
Protocol: (§1) The membrane binding assay was used to identify competitive inhibitors of ^125I-NDP-alpha-MSH binding to cloned human MCRs expressed in mouse L- or Chinese hamster ovary (CHO)-cells.
(§2) Cell lines expressing melanocortin receptors were grown in T-180 flasks containing selective medium of the composition: 1 L Dulbecco's modified Eagles Medium (DMEM) with 4.5 g L-glucose, 25 mM Hepes, without sodium pyruvate, (Gibco/BRl); 100 ml 10% heat-inactivated fetal bovine serum (Sigma); 10 mL 10,000 unit/mL penicillin & 10,000 μg/mL streptomycin (Gibco/BRl); 10 ml 200 mM L-glutamine (Gibco/BRl); 1 mg/mL geneticin (G418) (Gibco/BRl). The cells were grown at 37° C. with CO2 and humidity control until the desired cell density and cell number was obtained.
(§3) The medium was poured off and 10 mls/T-180 flask of enzyme-free dissociation media (Specialty Media Inc.) was added. The cells were incubated at 37° C. for 10 min or until cells sloughed off when flask was banged against hand.
(§4) The cells were harvested into 200 mL centrifuge tubes and spun at 1000 rpm, 4° C., for 10 min. […]
(§5) The mixture was filtered with Packard Microplate 196 filter apparatus using Packard Unifilter 96-well GF/C filter with 0.1% polyethyleneimine (Sigma). […] The top was sealed and the radioactivity quantitated in a Packard Topcount Microplate Scintillation counter.

hMC5R [2] = molecular target: T2, hMC5R (Homo sapiens, UniProt P33032); experiment: as above; details: ratio IC50 MC-5R / IC50 MC-4R
T2 construct: expressed in transfected cells; host or cells: CHO- or L-cells or other eukaryotic cells
Protocol: as §1, §2, §3, §4, §5

hMC1bR = hMC1bR (Homo sapiens, UniProt Q01726); experiment: cAMP functional assay (agonist); format: cell-based; details: selective functional activity
Protocol: (§6) Cells (for example, CHO- or L-cells or other eukaryotic cells) expressing a human melanocortin receptor (see e.g. Yang-Y K; Ollmann-M M; Wilson-B D; Dickinson-C; Yamada-T; Barsh-G S; Gantz-I; Mol-Endocrinol. 1997 March; 11(3): 274-80) were dissociated from tissue culture flasks by rinsing with Ca and Mg free phosphate buffered saline (14190-136, Life Technologies, Gaithersburg, Md.) and detached following 5 min incubation at 37° C. with enzyme free dissociation buffer (S-0,4-B, Specialty Media, Lavellette, N.J.). Cells were collected by centrifugation and resuspended in Earle's Balanced Salt Solution (14015-069, Life Technologies, Gaithersburg, Md.) with additions of 10 mM HEPES pH 7.5, 5 mM MgCl2, 1 mM glutamine and 1 mg/ml bovine serum albumin. Cells were counted and diluted to 1 to 5×10^6/mL. The phosphodiesterase inhibitor 3-isobutyl-1-methylxanthine was added to cells to 0.6 mM.
(§7) Agonist Assay: Test compounds were diluted in dimethylsulfoxide (DMSO) (10^−5 to 10^−10 M) and 0.1 volume of compound solution was added to 0.9 volumes of cell suspension; the final DMSO concentration was […]. After room temperature incubation for 45 min, cells were lysed by incubation at 100° C. for 5 min to release accumulated cAMP.
(§8) cAMP was measured in an aliquot of the cell lysate with the Amersham (Arlington Heights, Ill.) cAMP detection assay (RPA556). The amount of cAMP production which resulted from an unknown compound was compared to that amount of cAMP produced in response to alpha-MSH which was defined as a 100% agonist. The EC50 is defined as the compound concentration which results in half maximal stimulation, when compared to its own maximal level of stimulation.

hMC2R = molecular target: T3, hMC2R (Homo sapiens, UniProt Q01718); experiment: cAMP functional assay (agonist); format: cell-based
T3 construct: expressed in transfected cells; host or cells: CHO- or L-cells or other eukaryotic cells
Protocol: as §6, §7, §8

hMC3R [3] = molecular target: T1, hMC3R; experiment: cAMP functional assay (agonist); format: cell-based
Protocol: as §6, §7, §8

hMC5R [4] = molecular target: T2, hMC5R; experiment: cAMP functional assay (agonist); format: cell-based
Protocol: as §6, §7, §8

Male Wistar rats = experiment: Maintenance operant nicotine self-administration; format: in vivo, rat
Protocol: Animals: Male Wistar rats were used in all experiments. Body weight was 180-200 g at the start of the experiments. Rats were housed 2-3 per cage with food and water available ad libitum. Lights were on a 12-hour light/dark cycle, with lights on at 0600. All procedures met the guidelines of the National Institutes of Health Guide for the Care and Use of Laboratory Animals.
Operant Nicotine Self-Administration: Nicotine (Sigma Chemical Co., St. Louis, Mo.) was added to saline to achieve a concentration of 0.03 mg/ml. Standard operant chambers (Med Associates, VT) housed in sound-attenuated chambers were used for nicotine self-administration. Syringe pumps delivered nicotine via tygon tubing. The two retractable levers were located 12 cm apart and 4 cm above the floor. Fluid delivery and recording of operant responding were controlled by microcomputer. Rats were trained on a […] fixed-ratio 4 (FR4) schedule to self-administer nicotine (0.03 mg/ml, 0.1 ml per delivery) in 60 minute sessions. Once reliable levels of nicotine-reinforced self-administration were achieved, the effect of Compound A (0, and 20 mg/kg) on maintenance levels of responding was investigated.

[5] = selective functional activity, 45 min

T1 sequence (P41968 whole entry): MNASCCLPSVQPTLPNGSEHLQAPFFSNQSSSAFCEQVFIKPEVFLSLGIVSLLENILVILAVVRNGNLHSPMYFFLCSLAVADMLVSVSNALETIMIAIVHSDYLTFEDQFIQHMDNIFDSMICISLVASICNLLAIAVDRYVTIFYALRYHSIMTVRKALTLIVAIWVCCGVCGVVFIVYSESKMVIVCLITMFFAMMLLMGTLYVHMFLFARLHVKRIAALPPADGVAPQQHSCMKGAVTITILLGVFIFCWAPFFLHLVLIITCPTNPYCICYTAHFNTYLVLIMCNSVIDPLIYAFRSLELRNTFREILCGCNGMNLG
T2 sequence (P33032 whole entry): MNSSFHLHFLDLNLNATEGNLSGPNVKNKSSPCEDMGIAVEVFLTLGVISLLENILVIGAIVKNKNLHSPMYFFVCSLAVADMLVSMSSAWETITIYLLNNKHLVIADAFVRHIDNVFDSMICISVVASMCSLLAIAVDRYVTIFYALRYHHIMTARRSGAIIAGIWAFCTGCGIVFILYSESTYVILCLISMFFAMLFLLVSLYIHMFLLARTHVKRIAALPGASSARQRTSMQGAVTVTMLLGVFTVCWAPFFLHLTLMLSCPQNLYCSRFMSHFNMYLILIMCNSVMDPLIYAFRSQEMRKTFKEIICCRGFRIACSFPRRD
T3 sequence (Q01718 whole entry): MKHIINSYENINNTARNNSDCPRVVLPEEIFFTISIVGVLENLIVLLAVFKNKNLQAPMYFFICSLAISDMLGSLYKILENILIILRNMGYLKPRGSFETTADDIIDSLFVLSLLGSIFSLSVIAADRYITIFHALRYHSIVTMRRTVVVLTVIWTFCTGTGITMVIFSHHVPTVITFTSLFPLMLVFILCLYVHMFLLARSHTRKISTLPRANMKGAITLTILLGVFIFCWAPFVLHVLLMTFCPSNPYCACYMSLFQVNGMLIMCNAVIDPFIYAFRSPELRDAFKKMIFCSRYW
Chain of hMC1bR (Q01726 whole entry): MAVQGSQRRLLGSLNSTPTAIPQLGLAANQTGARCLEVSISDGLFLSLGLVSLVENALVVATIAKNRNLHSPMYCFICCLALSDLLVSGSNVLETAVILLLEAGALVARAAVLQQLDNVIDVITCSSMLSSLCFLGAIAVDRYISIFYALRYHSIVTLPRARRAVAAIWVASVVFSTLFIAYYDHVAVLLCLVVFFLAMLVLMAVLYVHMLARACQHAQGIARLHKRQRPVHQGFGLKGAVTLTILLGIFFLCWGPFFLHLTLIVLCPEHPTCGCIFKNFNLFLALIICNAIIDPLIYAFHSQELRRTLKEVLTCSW

CC[C@H](NC(C)=O)c1cc(Cl)ccc1C1CCN(C(=O)[C@@H]2CN(C(C)(C)C)C[C@H]2c2ccc(F)cc2F)CC1 [Compound A]
Selectivity Binding IC50 3R/4R (hMC3R [1]): 163.6
Selectivity Binding IC50 5R/4R (hMC5R [2]): 36.36
EC50 for melanocortin 4 receptor lower than for melanocortin 1 receptor (hMC1bR): at least 120 fold
Selectivity cAMP EC50 2R/4R (hMC2R; ratio EC50 MC-2R / EC50 MC-4R): >714.2
EC50 for melanocortin 4 receptor lower than for melanocortin 2 receptor (hMC2R; [5]): at least 700 fold
Selectivity cAMP EC50 3R/4R (hMC3R [3]; ratio EC50 MC-3R / EC50 MC-4R): 65.71
EC50 for melanocortin 4 receptor lower than for melanocortin 3 receptor (hMC3R [3]; [5]): at least 65 fold
Selectivity cAMP EC50 5R/4R (hMC5R [4]; ratio EC50 MC-5R / EC50 MC-4R): 100
EC50 for melanocortin 4 receptor lower than for melanocortin 5 receptor (hMC5R [4]; [5]): at least 100 fold
effect on maintenance levels of nicotine self-administration (nicotine infusions) (Male Wistar rats; 20 mg/kg po prior to testing, 60 minute session, vs baseline (p=0.0001)): significant reductions from baseline levels; also recorded: significant reduction
response rates on the alternate (non-drug reinforced) lever (Male Wistar rats; Wistar rats, any dose tested (0, 20 mg/kg)): not significantly altered; also recorded: no significant effects
reduction of nicotine self administration (Male Wistar rats; Wistar rats, pre-treatment, maintenance period of regular nicotine use): approximately 85%
